Data from ChEMBL document CHEMBL3885861, “Open TG-GATES”.

Species: Rattus norvegicus
Experiment: Open TG-GATES - Regimen: Daily Repeat
Assay type: toxicity, organism-based, Sprague-Dawley
Parameters: regimen Daily Repeat, gender Male, age 6 weeks
Settings: in vivo, po, route gavage; for APTT / Bas / Eos / Fbg / Hb / Ht / Lym / MCH / MCHC / MCV / Mono / Neu / PT / Plat / RBC / Ret / WBC: tissue Blood; for KIDNEY_L / KIDNEY_R / KIDNEY_TOTAL: tissue Kidney; for LIVER: tissue Liver; for A/G / ALP / ALT / AST / BUN / CRE / Ca / Cl / DBIL / GLC / IP / K / LDH / Na / PL / RALB / TBIL / TC / TG / TP / gamma-GTP: tissue Plasma
[1] = 0 mg/kg, 72 h, dose level Control, time 3 day
[2] = 0 mg/kg, […], dose level Control, time 7 day
[3] = 0 mg/kg, […], dose level Control, time 14 day
[4] = 0 mg/kg, […], dose level Control, time 28 day
[5] = 100 mg/kg, 72 h, dose level Low, time 3 day
[6] = 100 mg/kg, […], dose level Low, time 7 day
[7] = 100 mg/kg, […], dose level Low, time 14 day
[8] = 100 mg/kg, […], dose level Low, time 28 day

## O=C(N[C@H](CO)[C@H](O)c1ccc([N+](=O)[O-])cc1)C(Cl)Cl [CHLORAMPHENICOL]
[1]
  TERMINAL_BW: 250.4 g
  APTT: 17.1 s
  Bas: 0%
  Eos: 1.2%
  Fbg: 270.4 mg/dL
  Hb: 13.1 g/dL
  Ht: 40.4%
  Lym: 71.6%
  MCH: 21.5 pg
  MCHC: 32.4%
  MCV: 66.2 fL
  Mono: 3%
  Neu: 23.8%
  PT: 14.4 s
  Plat: 109.8 x10_4/uL
  RBC: 611.2 x10_4/ul
  Ret: 7%
  WBC: 78.3 x10_2/uL
  KIDNEY_L: 1.1 g
  KIDNEY_R: 1.1 g
  KIDNEY_TOTAL: 2.2 g
  LIVER: 12.4 g
  A/G: 0.9
  ALP: 1702 IU/L
  ALT: 44 IU/L
  AST: 66.4 IU/L
  BUN: 15 mg/dL
  CRE: 0.2 mg/dL
  Ca: 11.3 mg/dL
  Cl: 105 meq/L
  DBIL: 0.022 mg/dL
  GLC: 186.8 mg/dL
  IP: 7.1 mg/dL
  K: 4.1 meq/L
  LDH: 80.8 IU/L
  Na: 140.4 meq/L
  PL: 154 mg/dL
  RALB: 2.7 g/dL
  TBIL: 0.048 mg/dL
  TC: 78.4 mg/dL
  TG: 127.6 mg/dL
  TP: 5.7 g/dL
  gamma-GTP: 1.2 IU/L
[2]
  TERMINAL_BW: 289.7 g
  APTT: 17.6 s
  Bas: 0%
  Eos: 0.8%
  Fbg: 274.8 mg/dL
  Hb: 13.7 g/dL
  Ht: 42%
  Lym: 77.8%
  MCH: 21.4 pg
  MCHC: 32.6%
  MCV: 65.7 fL
  Mono: 2.6%
  Neu: 18.2%
  PT: 14.1 s
  Plat: 131.7 x10_4/uL
  RBC: 640.6 x10_4/ul
  Ret: 5.6%
  WBC: 92.1 x10_2/uL
  KIDNEY_L: 1.2 g
  KIDNEY_R: 1.2 g
  KIDNEY_TOTAL: 2.4 g
  LIVER: 13.8 g
  A/G: 0.9
  ALP: 1839.2 IU/L
  ALT: 44.4 IU/L
  AST: 69.4 IU/L
  BUN: 15.4 mg/dL
  CRE: 0.2 mg/dL
  Ca: 11.3 mg/dL
  Cl: 106.4 meq/L
  DBIL: 0.024 mg/dL
  GLC: 188.8 mg/dL
  IP: 7.5 mg/dL
  K: 3.9 meq/L
  LDH: 64.2 IU/L
  Na: 143.2 meq/L
  PL: 162.2 mg/dL
  RALB: 2.7 g/dL
  TBIL: 0.052 mg/dL
  TC: 79 mg/dL
  TG: 140.4 mg/dL
  TP: 5.9 g/dL
  gamma-GTP: 1.2 IU/L
[3]
  TERMINAL_BW: 334.8 g
  APTT: 16.9 s
  Bas: 0%
  Eos: 1%
  Fbg: 272 mg/dL
  Hb: 14.6 g/dL
  Ht: 44.5%
  Lym: 78.4%
  MCH: 20.3 pg
  MCHC: 32.6%
  MCV: 62.3 fL
  Mono: 2.2%
  Neu: 18%
  PT: 14.8 s
  Plat: 122.4 x10_4/uL
  RBC: 715.4 x10_4/ul
  Ret: 3.8%
  WBC: 90.5 x10_2/uL
  KIDNEY_L: 1.3 g
  KIDNEY_R: 1.3 g
  KIDNEY_TOTAL: 2.6 g
  LIVER: 13.9 g
  A/G: 0.8
  ALP: 1466.2 IU/L
  ALT: 37.2 IU/L
  AST: 63.6 IU/L
  BUN: 17.2 mg/dL
  CRE: 0.2 mg/dL
  Ca: 11.1 mg/dL
  Cl: 107.2 meq/L
  DBIL: 0.024 mg/dL
  GLC: 187.6 mg/dL
  IP: 6.5 mg/dL
  K: 4.5 meq/L
  LDH: 59 IU/L
  Na: 143 meq/L
  PL: 151.6 mg/dL
  RALB: 2.7 g/dL
  TBIL: 0.05 mg/dL
  TC: 63.6 mg/dL
  TG: 189.6 mg/dL
  TP: 6 g/dL
  gamma-GTP: 1 IU/L
[4]
  TERMINAL_BW: 425.6 g
  APTT: 18.3 s
  Bas: 0%
  Eos: 1.6%
  Fbg: 259 mg/dL
  Hb: 15.5 g/dL
  Ht: 45.1%
  Lym: 77.4%
  MCH: 20 pg
  MCHC: 34.3%
  MCV: 58.3 fL
  Mono: 1.8%
  Neu: 18.4%
  PT: 14.8 s
  Plat: 93.9 x10_4/uL
  RBC: 773 x10_4/ul
  Ret: 2.2%
  WBC: 79.4 x10_2/uL
  KIDNEY_L: 1.4 g
  KIDNEY_R: 1.4 g
  KIDNEY_TOTAL: 2.8 g
  LIVER: 17 g
  A/G: 0.8
  ALP: 1089.6 IU/L
  ALT: 36.4 IU/L
  AST: 60 IU/L
  BUN: 17 mg/dL
  CRE: 0.2 mg/dL
  Ca: 11 mg/dL
  Cl: 104.4 meq/L
  DBIL: 0.018 mg/dL
  GLC: 193.4 mg/dL
  IP: 6.2 mg/dL
  K: 3.7 meq/L
  LDH: 47.2 IU/L
  Na: 143.8 meq/L
  PL: 141.4 mg/dL
  RALB: 2.7 g/dL
  TBIL: 0.054 mg/dL
  TC: 66 mg/dL
  TG: 136.6 mg/dL
  TP: 6.3 g/dL
  gamma-GTP: 1 IU/L
[5]
  TERMINAL_BW: 251 g
  APTT: 16.1 s
  Bas: 0%
  Eos: 1%
  Fbg: 273.2 mg/dL
  Hb: 13.3 g/dL
  Ht: 40.4%
  Lym: 79.4%
  MCH: 21.8 pg
  MCHC: 32.8%
  MCV: 66.6 fL
  Mono: 3.2%
  Neu: 16.2%
  PT: 14.7 s
  Plat: 116.8 x10_4/uL
  RBC: 607.2 x10_4/ul
  Ret: 5.4%
  WBC: 102.1 x10_2/uL
  KIDNEY_L: 1.1 g
  KIDNEY_R: 1 g
  KIDNEY_TOTAL: 2.1 g
  LIVER: 11.3 g
  A/G: 0.9
  ALP: 1563.4 IU/L
  ALT: 45 IU/L
  AST: 69.4 IU/L
  BUN: 15.6 mg/dL
  CRE: 0.2 mg/dL
  Ca: 11.1 mg/dL
  Cl: 104.6 meq/L
  DBIL: 0.02 mg/dL
  GLC: 178.4 mg/dL
  IP: 6.8 mg/dL
  K: 4.3 meq/L
  LDH: 95.6 IU/L
  Na: 141.2 meq/L
  PL: 146.8 mg/dL
  RALB: 2.5 g/dL
  TBIL: 0.054 mg/dL
  TC: 80 mg/dL
  TG: 97.6 mg/dL
  TP: 5.4 g/dL
  gamma-GTP: 0.8 IU/L
[6]
  TERMINAL_BW: 287.8 g
  APTT: 16.2 s
  Bas: 0%
  Eos: 0.8%
  Fbg: 308.8 mg/dL
  Hb: 14.2 g/dL
  Ht: 44.4%
  Lym: 78.2%
  MCH: 21.1 pg
  MCHC: 32.2%
  MCV: 65.7 fL
  Mono: 3%
  Neu: 17.4%
  PT: 14.4 s
  Plat: 131.5 x10_4/uL
  RBC: 675 x10_4/ul
  Ret: 6%
  WBC: 90.7 x10_2/uL
  KIDNEY_L: 1.2 g
  KIDNEY_R: 1.2 g
  KIDNEY_TOTAL: 2.4 g
  LIVER: 12.9 g
  A/G: 0.8
  ALP: 1500.2 IU/L
  ALT: 49 IU/L
  AST: 71.2 IU/L
  BUN: 13.6 mg/dL
  CRE: 0.2 mg/dL
  Ca: 11.7 mg/dL
  Cl: 106.2 meq/L
  DBIL: 0.026 mg/dL
  GLC: 189.6 mg/dL
  IP: 8.3 mg/dL
  K: 4.2 meq/L
  LDH: 65.8 IU/L
  Na: 144.2 meq/L
  PL: 156.2 mg/dL
  RALB: 2.7 g/dL
  TBIL: 0.062 mg/dL
  TC: 82.6 mg/dL
  TG: 72.4 mg/dL
  TP: 5.9 g/dL
  gamma-GTP: 1.2 IU/L
[7]
  TERMINAL_BW: 333.6 g
  APTT: 14.7 s
  Bas: 0%
  Eos: 1.4%
  Fbg: 297.8 mg/dL
  Hb: 14.1 g/dL
  Ht: 43.4%
  Lym: 78%
  MCH: 20.2 pg
  MCHC: 32.5%
  MCV: 62.1 fL
  Mono: 2.4%
  Neu: 18%
  PT: 14.5 s
  Plat: 121.6 x10_4/uL
  RBC: 698.2 x10_4/ul
  Ret: 3.8%
  WBC: 96.2 x10_2/uL
  KIDNEY_L: 1.3 g
  KIDNEY_R: 1.3 g
  KIDNEY_TOTAL: 2.6 g
  LIVER: 14.9 g
  A/G: 0.8
  ALP: 1535.2 IU/L
  ALT: 41.8 IU/L
  AST: 67.4 IU/L
  BUN: 16 mg/dL
  CRE: 0.2 mg/dL
  Ca: 11.2 mg/dL
  Cl: 105 meq/L
  DBIL: 0.022 mg/dL
  GLC: 191 mg/dL
  IP: 6.5 mg/dL
  K: 3.8 meq/L
  LDH: 54.8 IU/L
  Na: 142.8 meq/L
  PL: 157.4 mg/dL
  RALB: 2.6 g/dL
  TBIL: 0.05 mg/dL
  TC: 77.8 mg/dL
  TG: 133 mg/dL
  TP: 5.8 g/dL
  gamma-GTP: 1 IU/L
[8]
  TERMINAL_BW: 409.6 g
  APTT: 16.5 s
  Bas: 0%
  Eos: 1%
  Fbg: 278 mg/dL
  Hb: 14.9 g/dL
  Ht: 43.7%
  Lym: 81%
  MCH: 19.5 pg
  MCHC: 34.2%
  MCV: 57 fL
  Mono: 1.2%
  Neu: 15.8%
  PT: 14.8 s
  Plat: 106 x10_4/uL
  RBC: 767.4 x10_4/ul
  Ret: 2.3%
  WBC: 79.5 x10_2/uL
  KIDNEY_L: 1.6 g
  KIDNEY_R: 1.5 g
  KIDNEY_TOTAL: 3.1 g
  LIVER: 16.8 g
  A/G: 0.8
  ALP: 1164.4 IU/L
  ALT: 39.2 IU/L
  AST: 61.4 IU/L
  BUN: 16.4 mg/dL
  CRE: 0.2 mg/dL
  Ca: 10.9 mg/dL
  Cl: 104.4 meq/L
  DBIL: 0.02 mg/dL
  GLC: 171.2 mg/dL
  IP: 6.1 mg/dL
  K: 3.5 meq/L
  LDH: 44.6 IU/L
  Na: 144.2 meq/L
  PL: 152.2 mg/dL
  RALB: 2.7 g/dL
  TBIL: 0.058 mg/dL
  TC: 75.2 mg/dL
  TG: 97.6 mg/dL
  TP: 6.2 g/dL
  gamma-GTP: 1 IU/L
